# Tests used:
# [1] = Solid phase binding assay (ELISA) of biotin-labeled peptides to immobilized LPS; design: species or system E. coli; details: biotin-labeled peptide 5-20 μg/mL; LPS 5 μg/mL coated
# Procedure: (§1) FIG. 3. Binding of biotin-labeled CD6-derived peptides to immobilized PAMPs from Gram- and Gram+ origin. Increasing concentrations (5-20 μg/mL) of biotin-labeled CD6- (PD1, PD2, PD3 and cons), DMBT1- (pbs1), and CD5- (PD1) derived peptides were added to 96-well ELISA plates sensitized with E. coli 0111:B4 LPS (A) or S. aureus LTA (B) (5 μg/mL each in PBS). Following overnight incubation at 4° C. bound peptides or proteins were developed by addition of horseradish peroxidase (HRP)-labeled streptavidin and 3,3′,5,5′-tetramethylbenzidine (TMB) substrate and further readings at OD 405-620 nm. Results are expressed as mean±SD of duplicates from one representative experiment of three performed. Statistical analysis was performed by two-way ANOVA (*,P<0.05; **, P<0.01; ***, P<0.001).
# (§2) Solid Phase Binding Assays. 96-well microtiter plates (Nunc, Roskilde, Denmark) were coated overnight at 4° C. with 5 μg/mL of purified LPS (E. coli 0111:B4, Sigma L2630) or LTA (S. aureus, Sigma L2515) in PBS, and then incubated for 2 h at room temperature in blocking solution (20 mM Tris-HCl pH 7.4 plus 0.05% Tween 20 and 1% BSA). Biotin-labeled peptides/proteins (2.5-20 μg/mL) were added and incubated overnight at 4° C. in blocking solution. After extensive washing, bound peptides/proteins were detected by the addition of horseradish peroxidase (HRP)-labeled streptavidin (1:5,000 dilution; DAKO) for 1 h at room temperature. Color was developed by adding 3,3′,5,5′-tetramethylbenzidine (TMB) liquid substrate (Sigma), and optical density read at 405-620 nm.
# [2] = Solid phase binding assay (ELISA) of biotin-labeled peptides to immobilized LTA; design: species or system S. aureus; details: biotin-labeled peptide 5-20 μg/mL; LTA 5 μg/mL coated
# Procedure: as §1, §2
# [3] = system: mouse splenocytes exposed to LPS; experiment: LPS-induced cytokine release by mouse splenocytes; format: cell-based, C57BL/6 mice; details: LPS 0.5 μg/mL, 48 h, peptide 0.5, 5 and 20 μg/mL
# Procedure: FIG. 6. Effect of CD6-derived peptides on in vitro LIPS-induced cytokine release by mouse splenocytes. Total spleen cell suspensions (2×10^5) from C57BL/6 mice (n=7) were stimulated in triplicate for 48 h with LPS (0.5 μg/mL), in the presence or absence of increasing concentrations (0.5, 5, and 20 μg/mL) of CD6-derived peptides (PD1, PD2, PD3, and Pcons). Cytokine levels in culture supernatants were determined by ELISA and results expressed in pg/mL as mean±SD of triplicates. Viability was >75% at 48 h in all experimental conditions. Statistical analysis was performed using a 2-tailed Mann-Whitney test, with confidence intervals of 95% (*, P<0.05; **, P<0.01; ***, P<0.001).
# Spleens from 6-8 week old C57BL/6 mice (Charles River) were disaggregated by filtering through a cell strainer and, after erythrocyte lysis, cells were resuspended in RPMI 1640 with L-glutamine (Lonza) plus 10% fetal calf serum (BioWest), 100 U/mL penicillin, 100 μg/mL streptomycin and 50 μM 2-(3 Mercaptoethanol (Merck). Cells (2×10^5) were stimulated for 48 h (at 37° C. in a humidified atmosphere with 5% CO2) in U-bottomed 96-well plates (Biofil) containing LPS (0.5 μg/mL; E. coli O111:B4), in the presence or absence of increasing peptides (0.5-20 μg/mL). Culture supernatants were harvested and mouse cytokines measured by ELISA following manufacturer's instructions (BD Biosciences OptEIA sets).
# [4] = system: mice undergoing CLP-induced septic shock; experiment: Blood and spleen bacterial load following CLP-induced sepsis; format: in vivo, C57BL/6J mice; details: 20 h post CLP; 6 mg/kg i.v. at +1 h; vs saline control group
# Procedure: FIG. 9. Therapeutic effect of CD6.PD3 infusion on cytokine and bacterial load levels following CLP-induced sepsis. (A) C57BL/6J mice were i.v. infused at +1 h post CLP with saline (n=7) or CD6.PD3 peptide (6 mg/kg; n=9), and cytokine plasma levels were monitored by ELISA at different time points (4 h and 20 h) thereafter. Data are expressed as mean±SD. (B) Same mouse groups as in (A) were monitored for blood and spleen bacterial load at 20 h following CLP induction. Data are expressed as mean±SD of CFU/mg (spleen) or CFU/μL (blood). In all cases, statistical differences were evaluated using a 2-tailed Student t-test (*, P<0.05).
# For the assessment of bacterial load, blood and spleen samples from CLP-treated mice were collected, homogenized and diluted aseptically in sterile PBS. Serial dilutions were plated overnight on agar with 5% sheep blood (Becton Dickinson) at 37° C. Viable bacterial counts were expressed as CFU/mL (blood) or per mg (spleen).
sequence,measurement,setting,value
GQVEVHFRGVW (CD6.PD3),binding to immobilized LPS (ELISA),[1],excelled in its ability to bind
same,binding to immobilized LTA (ELISA),[2],excelled in its ability to bind
same,IL-1β release,[3],dose-dependent inhibitory effects
same,IL-6 release,[3],dose-dependent inhibitory effects
same,IL-10 release,[3],non-statistically significant dose-dependent increased release
same,CFU isolated from blood,[4],lower CFU
same,CFU isolated from spleen,[4],lower CFU
